Assay results: patent US20110086759A1, “CHEMICAL COMPOUNDS” (SYNGENTA CROP PROTECTION, INC., priority 2007, published 2011)

What was measured:
Assay type in all cases: in vivo
[1] = system: Echinochloa crus-galli (ECHCG); test: Pre-emergence biological efficacy, glasshouse pot test; conditions: 312 h, pre-emergence, 1,000 g/ha, evaluated after 13 days (100=total damage; 0=no damage), read-out: Percentage damage ECHCG
How it was run: (§1)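 Seeds sown in standard soil in pots, held one day in glasshouse (24/16 °C day/night, 14 h light, 65% humidity), then sprayed with aqueous solution from acetone/water (50:50) formulation with 0.5% Tween 20 at 1000 or 250 g/ha. Damage scored after 13 days (0 = none, 100 = total).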

[2] = system: Setaria faberi (SETFA); test: as above; conditions: 312 h, pre-emergence, 1,000 g/ha, evaluated after 13 days (100=total damage; 0=no damage), read-out: Percentage damage SETFA
How it was run: as §1

[3] = system: Ipomea hederaceae (IPOHE); test: as above; conditions: Ipomoea hederacea, 312 h; pre-emergence, 1,000 g/ha, evaluated after 13 days (100=total damage; 0=no damage); read-out: Percentage damage IPOHE
How it was run: as §1

[4] = system: Amaranthus retoflexus (AMARE); test: as above; conditions: Amaranthus retroflexus, 312 h; pre-emergence, 1,000 g/ha, evaluated after 13 days (100=total damage; 0=no damage); read-out: Percentage damage AMARE
How it was run: as §1

[5] = system: Alopecurus myosuroides (ALOMY); test: as above; conditions: 312 h, pre-emergence, 1,000 g/ha, evaluated after 13 days (100=total damage; 0=no damage), read-out: Percentage damage ALOMY
How it was run: as §1

[6] = system: Solanum nigrum (SOLNI); test: as above; conditions: 312 h, pre-emergence, 1,000 g/ha, evaluated after 13 days (100=total damage; 0=no damage), read-out: Percentage damage SOLNI
How it was run: as §1

[7] = system: Echinochloa crus-galli (ECHCG); test: Post-emergence biological efficacy, glasshouse pot test; conditions: 312 h, post-emergence, 1,000 g/ha, evaluated after 13 days (100=total damage; 0=no damage), read-out: Percentage damage caused to weed species, ECHCG
How it was run: (§2)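 Plants were sown in standard soil and grown 8 days in a glasshouse (24/16° C. day/night, 14 hours light, 65% humidity), then sprayed post-emergence at 1000 or 250 g/ha from acetone/water (50:50) with 0.5% Tween 20. Damage was scored visually after 13 days (0 = none, 100 = total).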

[8] = system: Setaria faberi (SETFA); test: as above; conditions: 312 h, post-emergence, 1,000 g/ha, evaluated after 13 days (100=total damage; 0=no damage), read-out: Percentage damage caused to weed species, SETFA
How it was run: as §2

[9] = system: Ipomea hederaceae (IPOHE); test: as above; conditions: Ipomoea hederacea, 312 h; post-emergence, 1,000 g/ha, evaluated after 13 days (100=total damage; 0=no damage); read-out: Percentage damage caused to weed species, IPOHE
How it was run: as §2

[10] = system: Amaranthus retoflexus (AMARE); test: as above; conditions: Amaranthus retroflexus, 312 h; post-emergence, 1,000 g/ha, evaluated after 13 days (100=total damage; 0=no damage); read-out: Percentage damage caused to weed species, AMARE
How it was run: as §2

[11] = system: Alopecurus myosuroides (ALOMY); test: as above; conditions: 312 h, post-emergence, 1,000 g/ha, evaluated after 13 days (100=total damage; 0=no damage), read-out: Percentage damage caused to weed species, ALOMY
How it was run: as §2

[12] = system: Solanum nigrum (SOLNI); test: as above; conditions: 312 h, post-emergence, 1,000 g/ha, evaluated after 13 days (100=total damage; 0=no damage), read-out: Percentage damage caused to weed species, SOLNI
How it was run: as §2

SMILES: COC(=O)c1nc(C2CC2)nc(NCC(F)c2ccc(F)cc2F)c1Cl (stereo not drawn) [Compound 4-238, 5-Chloro-2-cyclopropyl-4-[2-(2,4-difluoro-phenyl)-2-fluoro-ethylamino]-6-methoxycarbonyl-pyrimidine]
- pest or weed control at 1000 g/ha [1]: 0%
- pest or weed control at 1000 g/ha [2]: 0%
- pest or weed control at 1000 g/ha [3]: 0%
- pest or weed control at 1000 g/ha [4]: 10%
- pest or weed control at 1000 g/ha [5]: 0%
- pest or weed control at 1000 g/ha [6]: 50%
- pest or weed control at 1000 g/ha [7]: 0%
- pest or weed control at 1000 g/ha [8]: 0%
- pest or weed control at 1000 g/ha [9]: 60%
- pest or weed control at 1000 g/ha [10]: 90%
- pest or weed control at 1000 g/ha [11]: 10%
- pest or weed control at 1000 g/ha [12]: 70%

SMILES: COC(=O)c1nc(C2CC2)nc(NCC(F)c2ccc(Cl)cc2Cl)c1Cl (stereo not drawn) [Compound 4-239, 5-Chloro-2-cyclopropyl-4-[2-(2,4-dichlorophenyl)-2-fluoro-ethylamino]-6-methoxycarbonyl-pyrimidine]
- pest or weed control at 1000 g/ha [1]: 0%
- pest or weed control at 1000 g/ha [2]: 0%
- pest or weed control at 1000 g/ha [3]: 10%
- pest or weed control at 1000 g/ha [4]: 20%
- pest or weed control at 1000 g/ha [5]: 0%
- pest or weed control at 1000 g/ha [6]: 0%
- pest or weed control at 1000 g/ha [7]: 0%
- pest or weed control at 1000 g/ha [8]: 20%
- pest or weed control at 1000 g/ha [9]: 50%
- pest or weed control at 1000 g/ha [10]: 90%
- pest or weed control at 1000 g/ha [11]: 0%
- pest or weed control at 1000 g/ha [12]: 60%

SMILES: COC(=O)c1nc(C2CC2)nc(NCC(F)c2ccc(Br)cc2F)c1Cl (stereo not drawn) [Compound 4-240, 4-[2-(4-Bromo-2-fluorophenyl)-2-fluoro-ethylamino]-5-chloro-2-cyclopropyl-6-methoxycarbonyl-pyrimidine]
- pest or weed control at 1000 g/ha [1]: 0%
- pest or weed control at 1000 g/ha [2]: 0%
- pest or weed control at 1000 g/ha [3]: 0%
- pest or weed control at 1000 g/ha [4]: 30%
- pest or weed control at 1000 g/ha [5]: 0%
- pest or weed control at 1000 g/ha [6]: 10%
- pest or weed control at 1000 g/ha [7]: 0%
- pest or weed control at 1000 g/ha [8]: 30%
- pest or weed control at 1000 g/ha [9]: 60%
- pest or weed control at 1000 g/ha [10]: 100%
- pest or weed control at 1000 g/ha [11]: 10%
- pest or weed control at 1000 g/ha [12]: 70%

SMILES: COC(=O)c1nc(C2CC2)nc(NCC(C)(F)c2cccc(Cl)c2)c1Cl (stereo not drawn) [Compound 4-241, 5-Chloro-4-[2-(3-chlorophenyl)-2-fluoro-propylamino]-2-cyclopropyl-6-methoxycarbonyl-pyrimidine]
- pest or weed control at 1000 g/ha [1]: 0%
- pest or weed control at 1000 g/ha [2]: 0%
- pest or weed control at 1000 g/ha [3]: 0%
- pest or weed control at 1000 g/ha [4]: 30%
- pest or weed control at 1000 g/ha [5]: 0%
- pest or weed control at 1000 g/ha [6]: 0%
- pest or weed control at 1000 g/ha [7]: 10%
- pest or weed control at 1000 g/ha [8]: 30%
- pest or weed control at 1000 g/ha [9]: 60%
- pest or weed control at 1000 g/ha [10]: 60%
- pest or weed control at 1000 g/ha [11]: 0%
- pest or weed control at 1000 g/ha [12]: 70%

SMILES: COC(=O)c1nc(C2CC2)nc(NCC(C)(F)c2cccc(C(F)(F)F)c2)c1Cl (stereo not drawn) [Compound 4-242, 5-Chloro-2-cyclopropyl-4-[2-fluoro-2-(3-trifluoromethyl-phenyl)propyl-amino]-6-methoxy-carbonylpyrimidine]
- pest or weed control at 1000 g/ha [1]: 0%
- pest or weed control at 1000 g/ha [2]: 0%
- pest or weed control at 1000 g/ha [3]: 10%
- pest or weed control at 1000 g/ha [4]: 10%
- pest or weed control at 1000 g/ha [5]: 0%
- pest or weed control at 1000 g/ha [6]: 0%
- pest or weed control at 1000 g/ha [7]: 0%
- pest or weed control at 1000 g/ha [8]: 10%
- pest or weed control at 1000 g/ha [9]: 50%
- pest or weed control at 1000 g/ha [10]: 90%
- pest or weed control at 1000 g/ha [11]: 0%
- pest or weed control at 1000 g/ha [12]: 60%

SMILES: COC(=O)c1nc(C2CC2)nc(NCC(C)(F)c2ccc(Cl)cc2Cl)c1Cl (stereo not drawn) [Compound 4-243, 5-Chloro-2-cyclopropyl-4-[2-(2,4-dichlorophenyl)-2-fluoro-propylamino]-6-methoxycarbonyl-pyrimidine]
- pest or weed control at 1000 g/ha [1]: 0%
- pest or weed control at 1000 g/ha [2]: 0%
- pest or weed control at 1000 g/ha [3]: 0%
- pest or weed control at 1000 g/ha [4]: 40%
- pest or weed control at 1000 g/ha [5]: 0%
- pest or weed control at 1000 g/ha [6]: 10%
- pest or weed control at 1000 g/ha [7]: 10%
- pest or weed control at 1000 g/ha [8]: 20%
- pest or weed control at 1000 g/ha [9]: 60%
- pest or weed control at 1000 g/ha [10]: 80%
- pest or weed control at 1000 g/ha [11]: 0%
- pest or weed control at 1000 g/ha [12]: 70%

SMILES: CCCC(F)(CNc1nc(C2CC2)nc(C(=O)OC)c1Cl)c1ccc(Cl)cc1Cl (stereo not drawn) [Compound 4-244, 5-Chloro-2-cyclopropyl-4-[2-(2,4-dichloro-phenyl)-2-fluoro-pentylamino]-6-methoxycarbonyl-pyrimidine]
- pest or weed control at 1000 g/ha [1]: 0%
- pest or weed control at 1000 g/ha [2]: 0%
- pest or weed control at 1000 g/ha [3]: 0%
- pest or weed control at 1000 g/ha [4]: 30%
- pest or weed control at 1000 g/ha [5]: 0%
- pest or weed control at 1000 g/ha [6]: 0%
- pest or weed control at 1000 g/ha [7]: 0%
- pest or weed control at 1000 g/ha [8]: 0%
- pest or weed control at 1000 g/ha [9]: 50%
- pest or weed control at 1000 g/ha [10]: 20%
- pest or weed control at 1000 g/ha [11]: 0%
- pest or weed control at 1000 g/ha [12]: 20%

SMILES: COC(=O)c1nc(C2CC2)nc(NCCCN2CCCC2=O)c1Cl [Compound 4-246, 5-Chloro-2-cyclopropyl-6-methoxycarbonyl-4-[3-(2-oxo-pyrrolidin-1-yl)propylamino]-pyrimidine]
- pest or weed control at 1000 g/ha [1]: 0%
- pest or weed control at 1000 g/ha [2]: 0%
- pest or weed control at 1000 g/ha [3]: 30%
- pest or weed control at 1000 g/ha [4]: 80%
- pest or weed control at 1000 g/ha [5]: 0%
- pest or weed control at 1000 g/ha [6]: 20%
- pest or weed control at 1000 g/ha [7]: 0%
- pest or weed control at 1000 g/ha [8]: 30%
- pest or weed control at 1000 g/ha [9]: 60%
- pest or weed control at 1000 g/ha [10]: 100%
- pest or weed control at 1000 g/ha [11]: 0%
- pest or weed control at 1000 g/ha [12]: 50%

SMILES: COC(=O)c1nc(C2CC2)nc(NCCCN2CCCCC2C)c1Cl (stereo not drawn) [Compound 4-247, 5-Chloro-2-cyclopropyl-6-methoxycarbonyl-4-[3-(2-methyl-piperidin-1-yl)-propylamino]-pyrimidine]
- pest or weed control at 1000 g/ha [1]: 10%
- pest or weed control at 1000 g/ha [2]: 10%
- pest or weed control at 1000 g/ha [3]: 20%
- pest or weed control at 1000 g/ha [4]: 30%
- pest or weed control at 1000 g/ha [5]: 10%
- pest or weed control at 1000 g/ha [6]: 70%
- pest or weed control at 1000 g/ha [7]: 20%
- pest or weed control at 1000 g/ha [8]: 20%
- pest or weed control at 1000 g/ha [9]: 50%
- pest or weed control at 1000 g/ha [10]: 100%
- pest or weed control at 1000 g/ha [11]: 10%
- pest or weed control at 1000 g/ha [12]: 50%

SMILES: COC(=O)c1nc(C2CC2)nc(NCCCc2ccccc2)c1Cl [Compound 4-249, 5-Chloro-2-cyclopropyl-6-methoxycarbonyl-4-(3-phenylpropyl-amino)pyrimidine]
- pest or weed control at 1000 g/ha [1]: 50%
- pest or weed control at 1000 g/ha [2]: 50%
- pest or weed control at 1000 g/ha [3]: 100%
- pest or weed control at 1000 g/ha [4]: 60%
- pest or weed control at 1000 g/ha [5]: 20%
- pest or weed control at 1000 g/ha [6]: 80%
- pest or weed control at 1000 g/ha [7]: 50%
- pest or weed control at 1000 g/ha [8]: 70%
- pest or weed control at 1000 g/ha [9]: 90%
- pest or weed control at 1000 g/ha [10]: 100%
- pest or weed control at 1000 g/ha [11]: 30%
- pest or weed control at 1000 g/ha [12]: 100%
